Reference: US12090225B2 (Avalyn Pharma Inc., priority 2018, dated 2024)
Like-named read-outs stand apart in the source and are kept apart here.

Key:
[1] = Inhaled pharmacokinetics of nintedanib salt forms (intratracheal); type: in vivo, C57BL/6 mice; settings: C57BL/6 mice; for AUC 0-last / Elimination half-life (alpha-phase): 1.0 mg/kg IT
[2] = Apparent solubility of nintedanib HBr laboratory scale batches; type: physicochemical
Source text: During this process, a new polymorphic form was identified (pattern X)

[3] = Pattern stability screen of potential salts (40° C./75% RH, XRPD); type: physicochemical
Protocol: XRPD analysis was carried out on a PANalytical X'pert pro, scanning the samples between 3 and 35° 20. The material was gently compressed and loaded onto a multi-well plate with Kapton or Mylar polymer film to support the sample.
Primary Salt Screening. […] The solvent systems shown in Table were selected for salt screening. For sulfonic acids MEK was used instead of methanol and acetone:water 50:50 (v/v) was used instead of IPA:water to avoid any potential genotoxic impurities. Ca. […] If the acid was insoluble in the selected solvent, a slurry was used. If the acid was a liquid it was added to the API slurry from a stock solution in the allocated solvent. The mixtures of API/counterion/solvent were temperature cycled between ambient and 40° C. in 4 hour cycles for ca. 3 days. Any solids present were isolated and allowed to dry at ambient conditions, for ca. 30 minutes prior to analysis by XRPD. Where solutions were obtained they were evaporated to obtain solid material.

[4] = Aqueous solubility assessment of salts; type: physicochemical
[5] = Dynamic Vapour Sorption (DVS) hygroscopicity; type: physicochemical; settings: for DVS mass uptake at 90% RH: 25° C., uptake from input material; for Hygroscopicity: DVS
Protocol: Dynamic Vapour Sorption (DVS). Approximately, 10 mg of sample was placed into a mesh vapour sorption balance pan and loaded into a DVS-1 or DVS Advantage dynamic vapour sorption balance by Surface Measurement Systems. The sample was subjected to a ramping profile from 40-90% relative humidity (RH) at 10% increments, maintaining the sample at each step until a stable weight had been achieved (dm/dt 0.004%, minimum step length 30 minutes, maximum step length 500 minutes) at 25° C. After completion of the sorption cycle, the sample was dried using the same procedure to 0% RH and then a second sorption cycle back to 40% RH. Two cycles were performed. The weight change during the sorption/desorption cycles were plotted, allowing for the hygroscopic nature of the sample to be determined. XRPD analysis was then carried out on any solid retained.

[6] = 7 day stability testing of salts (40° C./75% RH, 80° C., ambient light; HPLC purity, XRPD); type: physicochemical; settings: for XRPD pattern after 7 day stability testing: listed as phosphate salt
Protocol: High Performance Liquid Chromatography-Ultraviolet Detection (HPLC-UV): Instrument: Dionex Ultimate 3000; Column: Acquity CSH C18 100 mm×2.1 mm 1.7 μm; Column Temperature: 50° C.; Autosampler Temperature: Ambient; UV wavelength: 210 nm; Injection Volume: 4 μL; Flow Rate: 0.6 mL/min; Mobile Phase A: 0.1% formic acid in water; Mobile Phase B: 0.1% formic acid in acetonitrile. The HPLC method used the gradient in Table 2.
FT-IR appeared to be consistent with the structure. […] The material was physically stable to changes in temperature and humidity when stored for one week.
A new, poorly crystalline pattern was produced when stored at 40° C./75% RH—Pattern 4.
Purity of these materials remained unchanged (as shown in Table) apart from the sample stored at ambient light, where a 0.5% drop in purity was observed.

[7] = Disproportionation/hydration studies (pH, XRPD pattern); type: physicochemical
Source text: No XRPD data could be compiled on the hydration or disproportionation of the salt due to the high solubility in water and acetone/water mixtures.
The salt only remained Pattern 1 at 0.3 aw. New patterns 6 and 7 are likely hydrated due to the high water activity conditions for production.

[8] = pH-solubility of nintedanib HBr Pattern 4 and Pattern X; type: physicochemical; settings: distilled water, over 48 hours, UV/vis 390 nm, unit assumed
Protocol: The solubility of Pattern 4 and Pattern X at various pH values were determined by UV/vis spectrophotometry. Excess Pattern 4 and Pattern X HBr salts were added to distilled water, vortexed at high speed and the pH was adjusted to the target value by adding 1N HCl or 1N NaOH. The test solutions were mixed on a magnetic stirrer for over 48 hours, then filtered through a 0.22 μm nylon membrane syringe filter and analyzed by uv/vis spectrophotometry at 390 nm. […] The solubility of both polymorphic forms decreases with increasing pH. Both polymorphic forms have similar solubility profile.

[9] = Temperature-solubility of nintedanib HBr Pattern 4 and Pattern X; type: physicochemical; settings: distilled water, over 48 hours
Protocol: During this time period, the samples were periodically taken out of the storage, vortexed, and returned to storage condition. At the end of the incubation period, the test solutions were filtered through a 0.22 μm nylon membrane syringe filter and analyzed by uv/vis spectrophotometry (at 390 nm) for drug concentration. Table 29 summarizes the solubility of both salt forms as a function of temperature. The solubility of both polymorphic forms increases with increasing temperature. Both polymorphic forms have similar solubility profiles.

[10] = Water Activity 0.3 (acetone/water)
[11] = Water Activity 0.6 (acetone/water)
[12] = Water Activity 0.9 (acetone/water)

Q: With COC(=O)c1ccc2c(c1)NC(=O)/C2=C(\Nc1ccc(N(C)C(=O)CN2CCN(C)CC2)cc1)c1ccccc1.Cl [Nintedanib chloride] as the compound, how does the “AUC 0-last” value ([1]; lung (whole lung homogenate)) read?
A: 60.1 mg·h/kg

Q: What about the “Elimination half-life (alpha-phase)” value ([1]; lung (whole lung homogenate)) of the same compound?
A: 3.9 min

Q: And the Cmax ([1]; plasma, 1.0 mg/kg IT (base equivalent))?
A: 400 ng/mL

Q: What about the “AUC 0-last” value ([1]; plasma) of the same compound?
A: 200 ng·h/mL

Q: And the “Elimination half-life (alpha-phase)” value ([1]; plasma)?
A: 1.7 min

Q: With Br.COC(=O)c1ccc2c(c1)NC(=O)C2=C(Nc1ccc(N(C)C(=O)CN2CCN(C)CC2)cc1)c1ccccc1 [AP064] as the compound, how does the “Apparent Solubility” value [2] read?
A: 1960 µg/mL

Q: Which “Apparent Solubility” value [2] does the source give for Br.COC(=O)c1ccc2c(c1)NC(=O)C2=C(Nc1ccc(N(C)C(=O)CN2CCN(C)CC2)cc1)c1ccccc1 [AP036] here?
A: 970 µg/mL

Q: Which “Apparent Solubility” value [2] does the source give for Br.COC(=O)c1ccc2c(c1)NC(=O)C2=C(Nc1ccc(N(C)C(=O)CN2CCN(C)CC2)cc1)c1ccccc1 [AP069] here?
A: 1020 µg/mL

Q: For Br.COC(=O)c1ccc2c(c1)NC(=O)C2=C(Nc1ccc(N(C)C(=O)CN2CCN(C)CC2)cc1)c1ccccc1 [AP178w], which “Apparent Solubility” value [2] is on record?
A: 1010 µg/mL

Q: Which “XRPD pattern after 72 hrs 40° C./75% RH” value ([3]; Initial pattern 1) does the source give for CC(=O)O [Acetate] here?
A: 1(FB)

Q: And the “XRPD pattern after 72 hrs 40° C./75% RH” value ([3]; Initial pattern 2)?
A: 1

Q: With Br.COC(=O)c1ccc2c(c1)NC(=O)C2=C(Nc1ccc(N(C)C(=O)CN2CCN(C)CC2)cc1)c1ccccc1 [AP178d] as the compound, how does the “Apparent Solubility” value [2] read?
A: 1940 µg/mL

Q: With O=C(O)/C=C/C(=O)O [Fumarate] as the compound, how does the “XRPD pattern after 72 hrs 40° C./75% RH” value ([3]; Initial pattern 1) read?
A: 1

Q: And the “XRPD pattern after 72 hrs 40° C./75% RH” value ([3]; Initial pattern 2)?
A: 2(MU)

Q: And the “pH (aqueous solubility measurement)” value ([4]; primary screen samples)?
A: 6.41

Q: Which results are given for Saccharin?
A: XRPD pattern after 72 hrs 40° C./75% RH ([3]; Initial pattern 1): 2; XRPD pattern after 72 hrs 40° C./75% RH ([3]; Initial pattern 2): 2; Solubility (aqueous) [4]: <625 µg/mL; pH (aqueous solubility measurement) [4]: 5.51

Q: With COC(=O)c1ccc2c(c1)NC(=O)/C2=C(\Nc1ccc(N(C)C(=O)CN2CCN(C)CC2)cc1)c1ccccc1.O=P(O)(O)O.O=P(O)(O)O [Phosphate] as the compound, how does the “DVS mass uptake at 90% RH” value [5] read?
A: further 10.6% uptake up

Q: And the “DVS mass uptake at 90% RH” value ([5]; listed as phosphate salt)?
A: ca. 10.6%

Q: What about the Hygroscopicity [5] of the same compound?
A: Hygroscopic

Q: And the Hygroscopicity ([5]; listed as phosphate salt)?
A: hygroscopic

Q: What about the “XRPD pattern after 72 hrs 40° C./75% RH” value ([3]; Initial pattern 1) of the same compound?
A: 1

Q: What about the “XRPD pattern after 72 hrs 40° C./75% RH” value ([3]; Initial pattern 2) of the same compound?
A: 2

Q: What about the “Purity (%)” value ([6]; 40° C./75% RH, 7 day stability testing) of the same compound?
A: 99.8%

Q: What about the “XRPD pattern after 7 day stability testing” value ([6]; 40° C./75% RH) of the same compound?
A: Pattern 4

Q: And the “XRPD pattern after 7 day stability testing” value ([6]; 80° C. and ambient conditions/light)?
A: remain Pattern 3

Q: And the “Purity (%)” value ([6]; 80° C., 7 day stability testing)?
A: 99.2%

Q: What about the “Purity (%)” value ([6]; Ambient, 7 day stability testing) of the same compound?
A: 99.6%

Q: What about the “Purity (%)” value ([6]; Input) of the same compound?
A: 99.9%

Q: And the “pH Post-Agitation” value [7, 10]?
A: 2.68

Q: What about the “pH Pre-Agitation” value [7, 10] of the same compound?
A: 3.08

Q: What about the “pH Post-Agitation” value [7, 11] of the same compound?
A: 2.52

Q: What about the “pH Pre-Agitation” value [7, 11] of the same compound?
A: 2.60

Q: What about the “pH Post-Agitation” value [7, 12] of the same compound?
A: 2.35

Q: And the “pH Pre-Agitation” value [7, 12]?
A: 2.34

Q: What about the “pH Post-Agitation” value ([7]; Water Activity 1.0 (water)) of the same compound?
A: 1.78

Q: And the “pH Pre-Agitation” value ([7]; Water Activity 1.0 (water))?
A: 2.75

Q: What about the “pH at 6 h” value ([4]; salt in water, after agitation) of the same compound?
A: 3.00

Q: And the “pH at 18 h” value ([4]; salt in water, after agitation)?
A: 2.11

Q: What about the “Initial pH” value ([4]; salt in water, solubility assessment) of the same compound?
A: 3.43

Q: With Br.COC(=O)c1ccc2c(c1)NC(=O)/C2=C(\Nc1ccc(N(C)C(=O)CN2CCN(C)CC2)cc1)c1ccccc1 [Nintedanib HBr Pattern 4, Nintedanib hydrobromide, XRPD Pattern 4] as the compound, how does the solubility ([8]; pH 3.1) read?
A: 2010 µg/mL

Q: And the solubility ([8]; pH 3.9)?
A: 1470 µg/mL

Q: And the solubility ([8]; pH 4.7)?
A: 1380 µg/mL

Q: And the solubility ([8]; pH 5.3)?
A: 1070 µg/mL

Q: What about the “Nintedanib HBr Solubility” value ([9]; 5° C.) of the same compound?
A: 790 µg/mL

Q: What about the “Nintedanib HBr Solubility” value ([9]; 22° C.) of the same compound?
A: 1380 µg/mL

Q: What about the “Nintedanib HBr Solubility” value ([9]; 40° C.) of the same compound?
A: 3200 µg/mL

Q: With Br.COC(=O)c1ccc2c(c1)NC(=O)C2=C(Nc1ccc(N(C)C(=O)CN2CCN(C)CC2)cc1)c1ccccc1 [AP152] as the compound, how does the “Apparent Solubility” value [2] read?
A: 1950 µg/mL
